# According to paper PMC12040969, “Design, synthesis, in silico studies, and apoptotic antiproliferative activity of novel thiazole-2-acetamide derivatives as tubulin polymerization inhibitors” (Frontiers in Chemistry, 2025):
# What was measured:
# [1] = test system: tubulin; assay: Tubulin polymerization inhibition assay (Cytoskeleton kit);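 for all read-outs here: Cell-free tubulin polymerization read by fluorescent reporter enhancement over a 30 min reaction, with the compound-free kit control taken as 100% activity and inhibition relative to it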; conditions: for Tub. enzyme inhibition assay %inhibition / Tub %inh: 30 min; for Tub. enzyme inhibition assay %inhibition: codes 522-537 run; for Tub. enzyme inhibition assay K. Activity: control = 120, codes 522-537 run; for IC50: read-out: Tubulin inhibition IC50 ± SEM, triplicate for each tested concentration; for Tub. (IC50) IC50±SD: supplement raw data, lab codes; for Tub %inh: YB-EGY run; for Tub K.Activity: EC = 120, YB-EGY run
# [2] = Cell viability assay (MTT), normal cells; format: cell-based; conditions: human, MCF-10A normal mammary gland epithelial cells, four-day incubation
# Experimental: The impact of novel compounds 10a-o and 13a-e on cell viability was examined using the MCF-10A (human mammary gland epithelial) normal cell line. The MTT test was employed to assess the cell viability of the novel compounds after a four-day incubation with MCF-10A cells ([El-Sherief et al., 2019]; [Ramadan et al., 2020]).
# The effects of compounds 10a-o and 13a-e on cell viability were assessed using the human mammary gland epithelial normal cell line (MCF-10A). The MTT assay assessed the cell viability of compounds 10a-o and 13a-e following a four-day incubation with MCF-10A cells ([El-Sherief et al., 2019]; [Ramadan et al., 2020]). Check Supplementary Appendix A for additional information.
# 4.2. Biological evaluation
# 4.2.1 Cell Viability assay (MTT assay)
# MTT assay was performed to investigate the effect of the synthesized compounds on mammary epithelial cells (MCF-10A). The cells were propagated in medium consisting of Ham's F-12 medium/ Dulbecco's modified Eagle's medium (DMEM) (1:1) supplemented with 10% foetal calf serum, 2 mM glutamine, insulin (10 μg/mL), hydrocortisone (500 ng/mL) and epidermal growth factor (20 ng/mL). Trypsin ethylenediamine tetra acetic acid (EDTA) was used to passage the cells after every 2-3 days. 96-well flat-bottomed cell culture plates were used to seed the cells at a density of 10^4 cells mL-1. The medium was aspirated from all the wells of culture plates after 24 h followed by the addition of synthesized compounds (in 200 μL medium to yield a final concentration of 0.1% (v/v) dimethyl sulfoxide) into individual wells of the plates.
# Four wells were designated to a single compound. The plates were allowed to incubate at 37°C for 96 h. Afterwards, the medium was aspirated and 3-[4,5-dimethylthiazol-2-yl]-2,5-diphenyltetrazolium bromide (MTT) (0.4 mg/mL) in medium was added to each well and subsequently incubated for 3 h. The medium was aspirated and 150 μL dimethyl sulfoxide (DMSO) was added to each well. The plates were vortexed followed by the measurement of absorbance at 540 nm on a microplate reader. The results were presented as inhibition (%) of proliferation in contrast to controls comprising 0.1%
Compound,Tub. enzyme inhibition assay %inhibition ([1]; conc 0.01 (unit not given)),Tub. enzyme inhibition assay K. Activity ([1]; conc 0.01 (unit not given)),Tub. enzyme inhibition assay %inhibition ([1]; conc 0.1 (unit not given)),Tub. enzyme inhibition assay K. Activity ([1]; conc 0.1 (unit not given)),Tub. enzyme inhibition assay %inhibition ([1]; conc 1 (unit not given)),Tub. enzyme inhibition assay K. Activity ([1]; conc 1 (unit not given)),Tub. enzyme inhibition assay %inhibition ([1]; conc 10 (unit not given)),Tub. enzyme inhibition assay K. Activity ([1]; conc 10 (unit not given)),Tub. enzyme inhibition assay %inhibition ([1]; conc 100 (unit not given)),Tub. enzyme inhibition assay K. Activity ([1]; conc 100 (unit not given)),IC50 [1],Tub. (IC50) IC50±SD [1],"viability at 96 h, 50 µM [2]",Tub %inh ([1]; conc 0.1 (unit not given)),Tub K.Activity ([1]; conc 0.1 (unit not given)),Tub %inh ([1]; conc 1 (unit not given)),Tub K.Activity ([1]; conc 1 (unit not given)),Tub %inh ([1]; conc 10 (unit not given)),Tub K.Activity ([1]; conc 10 (unit not given)),Tub %inh ([1]; conc 50 (unit not given)),also measured
"Cc1ccc(-c2csc(NC(=O)CSc3nc(C)c(C(=O)/C=C/c4ccc(Cl)cc4)s3)n2)cc1 [Compound 10l, (E)-2-((5-(3-(4-chlorophenyl)acryloyl)-4-methylthiazol-2-yl)thio)-N-(4-(p-tolyl)thiazol-2-yl)acetamide]",1.85%,117.78,10.9%,106.95,24.6%,90.43,49.3%,60.835,79.5%,24.585,13.9 ± 0.51 µM,7.331 ± 0.27 µg/mL,89%,–,–,–,–,–,–,–,–
"Cc1nc(SCC(=O)Nc2nc(-c3ccccc3)cs2)sc1C(=O)/C=C/c1ccc(F)cc1 [Compound 10c, (E)-2-((5-(3-(4-fluorophenyl)acryloyl)-4-methylthiazol-2-yl)thio)-N-(4-phenylthiazol-2-yl)acetamide]",–,–,–,–,–,–,–,–,–,–,22.5 ± 0.69 µM,–,89%,4.47%,114.64,12.4%,105.09,25.6%,89.245,52.5%,Tub K.Activity ([1]; conc 50 (unit not given)): 56.999; Tub %inh ([1]; conc 100 (unit not given)): 83%; Tub K.Activity ([1]; conc 100 (unit not given)): 20.424
"Cc1nc(SCC(=O)Nc2nc(-c3ccc(Cl)cc3)cs2)sc1C(=O)/C=C/c1ccc(Cl)cc1 [Compound 10g, (E)-2-((5-(3-(4-chlorophenyl)acryloyl)-4-methylthiazol-2-yl)thio)-N-(4-(4-chlorophenyl)thiazol-2-yl)acetamide]",0.65%,119.22,5.24%,113.71,15.3%,101.63,32.3%,81.206,70.5%,35.432,59.4 ± 3.78 µM,32.45 ± 2.07 µg/mL,89%,–,–,–,–,–,–,–,–
"COc1ccc(/C=C/C(=O)c2sc(SCC(=O)Nc3nccs3)nc2C)cc1 [Compound 13e, (E)-2-((5-(3-(4-methoxyphenyl)acryloyl)-4-methylthiazol-2-yl)thio)-N-(thiazol-2-yl)acetamide]",–,–,–,–,–,–,–,–,–,–,39.9 ± 1.22 µM,–,91%,7.07%,111.52,16.4%,100.36,26.3%,88.403,41.7%,Tub K.Activity ([1]; conc 50 (unit not given)): 69.965; Tub %inh ([1]; conc 100 (unit not given)): 75.9%; Tub K.Activity ([1]; conc 100 (unit not given)): 28.968
"Cc1ccc(/C=C/C(=O)c2sc(SCC(=O)Nc3nc(-c4ccc(Cl)cc4)cs3)nc2C)cc1 [Compound 10i, (E)-N-(4-(4-chlorophenyl)thiazol-2-yl)-2-((4-methyl-5-(3-(p-tolyl)acryloyl)thiazol-2-yl)thio)acetamide]",1.51%,118.18,5.52%,113.37,19.3%,96.892,41.3%,70.409,72.1%,33.442,33.5 ± 1.21 µM,17.63 ± 0.64 µg/mL,91%,–,–,–,–,–,–,–,–
"Cc1ccc(-c2csc(NC(=O)CSc3nc(C)c(C(=O)/C=C/c4ccccc4)s3)n2)cc1 [Compound 10k, (E)-2-((5-cinnamoyl-4-methylthiazol-2-yl)thio)-N-(4-(p-tolyl)thiazol-2-yl)acetamide]",0.28%,119.66,5.09%,113.89,16.5%,100.23,36.5%,76.175,71.9%,33.707,47.8 ± 1.74 µM,23.48 ± 0.86 µg/mL,90%,–,–,–,–,–,–,–,–
"Cc1nc(SCC(=O)Nc2nc(-c3ccccc3)cs2)sc1C(=O)/C=C/c1ccc(Cl)cc1 [Compound 10b, (E)-2-((5-(3-(4-chlorophenyl)acryloyl)-4-methylthiazol-2-yl)thio)-N-(4-phenylthiazol-2-yl)acetamide]",–,–,–,–,–,–,–,–,–,–,8.75 ± 0.27 µM,–,91%,5.79%,113.05,23.9%,91.287,41.4%,70.334,64.5%,Tub K.Activity ([1]; conc 50 (unit not given)): 42.629; Tub %inh ([1]; conc 100 (unit not given)): 88.7%; Tub K.Activity ([1]; conc 100 (unit not given)): 13.577
"Cc1ccc(/C=C/C(=O)c2sc(SCC(=O)Nc3nc(-c4ccc(C)cc4)cs3)nc2C)cc1 [Compound 10n, (E)-2-((4-methyl-5-(3-(p-tolyl)acryloyl)thiazol-2-yl)thio)-N-(4-(p-tolyl)thiazol-2-yl)acetamide]",2.01%,117.59,8.94%,109.27,26.1%,88.73,49.9%,60.139,76.7%,27.908,16 ± 0.59 µM,8.075 ± 0.3 µg/mL,89%,–,–,–,–,–,–,–,–
"Cc1nc(SCC(=O)Nc2nccs2)sc1C(=O)/C=C/c1ccccc1 [Compound 13a, (E)-2-((5-cinnamoyl-4-methylthiazol-2-yl)thio)-N-(thiazol-2-yl)acetamide]",–,–,–,–,–,–,–,–,–,–,15.8 ± 0.48 µM,–,89%,5.68%,113.18,16.6%,100.09,32.4%,81.141,62.4%,Tub K.Activity ([1]; conc 50 (unit not given)): 45.076; Tub %inh ([1]; conc 100 (unit not given)): 78.7%; Tub K.Activity ([1]; conc 100 (unit not given)): 25.608
"COc1ccc(/C=C/C(=O)c2sc(SCC(=O)Nc3nc(-c4ccc(Cl)cc4)cs3)nc2C)cc1 [Compound 10j, (E)-N-(4-(4-chlorophenyl)thiazol-2-yl)-2-((5-(3-(4-methoxyphenyl)acryloyl)-4-methylthiazol-2-yl)thio)acetamide]",2.01%,117.59,7.08%,111.51,22.6%,92.923,45.7%,65.175,75.5%,29.401,20.6 ± 0.75 µM,11.14 ± 0.41 µg/mL,93%,–,–,–,–,–,–,–,–
